According to ChEMBL document CHEMBL5537127, “Design and synthesis of novel hederagonic acid analogs as potent anti-inflammatory compounds capable of protecting against LPS-induced acute lung injury” (Eur J Med Chem, 2024):

What was measured:
[1] = Cytotoxicity against mouse RAW264.7 cells assessed as cell viability at 40 uM incubated for 24 hrs by MTT assay relative to control; type: toxicity, cell-based; conditions: read-out: Activity
RAW264.7 [2] = assay: Anti-inflammatory activity against LPS-induced mouse RAW264.7 cells assessed as inhibition of NO production at 20 uM preincubated for 2 hrs followed by LPS addition and measured after 24 hrs by Griess reagent-based microplate reader analysis relative to control; type: functional; design: scale not given: the % may be the effect or the level left; conditions: time 26 hrs
RAW264.7 [3] = assay: Anti-inflammatory activity against LPS-induced mouse RAW264.7 cells assessed as inhibition of NO production at 10 uM preincubated for 2 hrs followed by LPS addition and measured after 24 hrs by Griess reagent-based microplate reader analysis relative to control; type: functional; design: scale not given: the % may be the effect or the level left; conditions: time 26 hrs

| SMILES | viability at 24 h, 40 µM [1] [%] | Activity (RAW264.7 [2]) [%] | Activity (RAW264.7 [3]) [%] |
| --- | --- | --- | --- |
| CC1(C)CC[C@]2(C(=O)O)CC[C@]3(C)C(=CC[C@@H]4[C@@]5(C)CCC(=O)[C@@](C)(CO)[C@@H]5CC[C@]43C)[C@@H]2C1 | 109 | – | – |
| CC1(C)CC[C@]2(C(=O)OCc3ccccc3)CC[C@]3(C)C(=CC[C@@H]4[C@@]5(C)CCC(=O)[C@@](C)(COC(=O)CCN6CCCCC6)[C@@H]5CC[C@]43C)[C@@H]2C1 | 3.82 | – | – |
| CC1(C)CC[C@]2(C(=O)OCc3ccccc3)CC[C@]3(C)C(=CC[C@@H]4[C@@]5(C)CCC(=O)[C@@](C)(CO)[C@@H]5CC[C@]43C)[C@@H]2C1 | 106 | 13.6 | 13.3 |
| CC[C@H](C)[C@H](NC(=O)CCCC[C@@H]1CCSS1)C(=O)OC[C@]1(C)C(=O)CC[C@@]2(C)[C@H]1CC[C@]1(C)[C@@H]2CC=C2[C@@H]3CC(C)(C)CC[C@]3(C(=O)OCc3ccccc3)CC[C@]21C | 96 | 25.3 | 17.94 |
| CC1(C)CC[C@]2(C(=O)OCc3ccccc3)CC[C@]3(C)C(=CC[C@@H]4[C@@]5(C)C/C(=C/c6ccccc6[N+](=O)[O-])C(=O)[C@@](C)(CO)[C@@H]5CC[C@]43C)[C@@H]2C1 | 65 | 7.94 | 1.44 |
| CC1(C)CC[C@]2(C(=O)OCc3ccccc3)CC[C@]3(C)C(=CC[C@@H]4[C@@]5(C)C/C(=C/c6ccc(Br)cc6)C(=O)[C@@](C)(CO)[C@@H]5CC[C@]43C)[C@@H]2C1 | 92.9 | 10.62 | 6.09 |
| CC1(C)CC[C@]2(C(=O)OCc3ccccc3)CC[C@]3(C)C(=CC[C@@H]4[C@@]5(C)C/C(=C/c6cnccn6)C(=O)[C@@](C)(CO)[C@@H]5CC[C@]43C)[C@@H]2C1 | 3.34 | 5.02 | 4.56 |
| CC1(C)CC[C@]2(C(=O)OCc3ccccc3)CC[C@]3(C)C(=CC[C@@H]4[C@@]5(C)CCC(=O)[C@@](C)(COC(=O)C(F)(F)F)[C@@H]5CC[C@]43C)[C@@H]2C1 | 4.58 | – | – |
| CC1(C)CC[C@]2(C(=O)OCc3ccccc3)CC[C@]3(C)C(=CC[C@@H]4[C@@]5(C)CCC(=O)[C@@](C)(COC(=O)CCC6CCCC6)[C@@H]5CC[C@]43C)[C@@H]2C1 | 105 | 0.76 | 0.34 |
| CC(C)=CC(=O)OC[C@]1(C)C(=O)CC[C@@]2(C)[C@H]1CC[C@]1(C)[C@@H]2CC=C2[C@@H]3CC(C)(C)CC[C@]3(C(=O)OCc3ccccc3)CC[C@]21C | 95 | 25.68 | 16.39 |
| CC(=O)CCC(=O)OC[C@]1(C)C(=O)CC[C@@]2(C)[C@H]1CC[C@]1(C)[C@@H]2CC=C2[C@@H]3CC(C)(C)CC[C@]3(C(=O)OCc3ccccc3)CC[C@]21C | 106 | 59.4 | 43.51 |
| CC1(C)CC[C@]2(C(=O)OCc3ccccc3)CC[C@]3(C)C(=CC[C@@H]4[C@@]5(C)CCC(=O)[C@@](C)(COC(=O)CC#N)[C@@H]5CC[C@]43C)[C@@H]2C1 | 93.1 | 57.99 | 40.79 |
| CC1(C)CC[C@]2(C(=O)OCc3ccccc3)CC[C@]3(C)C(=CC[C@@H]4[C@@]5(C)C/C(=C/c6cccs6)C(=O)[C@@](C)(CO)[C@@H]5CC[C@]43C)[C@@H]2C1 | 72.1 | – | – |
| CC1(C)CC[C@]2(C(=O)OCc3ccccc3)CC[C@]3(C)C(=CC[C@@H]4[C@@]5(C)CCC(=O)[C@@](C)(COC(=O)CNC(=O)CCCC[C@@H]6CCSS6)[C@@H]5CC[C@]43C)[C@@H]2C1 | 114 | 46.99 | 28.81 |
| CC1(C)CC[C@]2(C(=O)OCc3ccccc3)CC[C@]3(C)C(=CC[C@@H]4[C@@]5(C)CCC(=O)[C@@](C)(COC(=O)CCCC[C@@H]6CCSS6)[C@@H]5CC[C@]43C)[C@@H]2C1 | 119 | 56.28 | 29.81 |
| CC1(C)CC[C@]2(C(=O)OCc3ccccc3)CC[C@]3(C)C(=CC[C@@H]4[C@@]5(C)C/C(=C/c6cscn6)C(=O)[C@@](C)(CO)[C@@H]5CC[C@]43C)[C@@H]2C1 | 85 | – | – |
| COCC(=O)OC[C@]1(C)C(=O)CC[C@@]2(C)[C@H]1CC[C@]1(C)[C@@H]2CC=C2[C@@H]3CC(C)(C)CC[C@]3(C(=O)OCc3ccccc3)CC[C@]21C | 105 | 61.15 | 42.74 |

| SMILES | viability at 24 h, 40 µM [1] [%] | Activity (RAW264.7 [2]) [%] | Activity (RAW264.7 [3]) [%] |
| --- | --- | --- | --- |
| CC1(C)CC[C@]2(C(=O)OCc3ccccc3)CC[C@]3(C)C(=CC[C@@H]4[C@@]5(C)CCC(=O)[C@@](C)(COC(=O)CCCCNC(=O)CCCC[C@@H]6CCSS6)[C@@H]5CC[C@]43C)[C@@H]2C1 | 31.6 | – | – |
| CC1(C)CC[C@]2(C(=O)OCc3ccccc3)CC[C@]3(C)C(=CC[C@@H]4[C@@]5(C)C/C(=C/c6nccs6)C(=O)[C@@](C)(CO)[C@@H]5CC[C@]43C)[C@@H]2C1 | 62.8 | – | – |
| CC1(C)CC[C@]2(C(=O)OCc3ccccc3)CC[C@]3(C)C(=CC[C@@H]4[C@@]5(C)CCC(=O)[C@@](C)(COC(=O)CCn6cccc6)[C@@H]5CC[C@]43C)[C@@H]2C1 | 96.9 | 12.08 | 7.3 |
| CC1(C)CC[C@]2(C(=O)OCc3ccccc3)CC[C@]3(C)C(=CC[C@@H]4[C@@]5(C)CCC(=O)[C@@](C)(COC(=O)CCc6c[nH]c7ccccc67)[C@@H]5CC[C@]43C)[C@@H]2C1 | 107 | 0.43 | 0.17 |
| CC1(C)CC[C@]2(C(=O)OCc3ccccc3)CC[C@]3(C)C(=CC[C@@H]4[C@@]5(C)C/C(=C/c6cncs6)C(=O)[C@@](C)(CO)[C@@H]5CC[C@]43C)[C@@H]2C1 | 64.8 | – | – |
| CC1(C)CC[C@]2(C(=O)OCc3ccccc3)CC[C@]3(C)C(=CC[C@@H]4[C@@]5(C)CCC(=O)[C@@](C)(COC(=O)CCc6ccccc6)[C@@H]5CC[C@]43C)[C@@H]2C1 | 76.1 | – | – |
| CC1(C)CC[C@]2(C(=O)OCc3ccccc3)CC[C@]3(C)C(=CC[C@@H]4[C@@]5(C)C/C(=C/c6cccc(Br)c6)C(=O)[C@@](C)(CO)[C@@H]5CC[C@]43C)[C@@H]2C1 | 94 | 3.82 | 3.77 |
| CC1(C)CC[C@]2(C(=O)OCc3ccccc3)CC[C@]3(C)C(=CC[C@@H]4[C@@]5(C)CCC(=O)[C@@](C)(COC(=O)CCCCCNC(=O)CCCC[C@@H]6CCSS6)[C@@H]5CC[C@]43C)[C@@H]2C1 | 99.7 | 75.31 | 49.56 |
| CC1(C)CC[C@]2(C(=O)OCc3ccccc3)CC[C@]3(C)C(=CC[C@@H]4[C@@]5(C)C/C(=C/c6ccccc6)C(=O)[C@@](C)(CO)[C@@H]5CC[C@]43C)[C@@H]2C1 | 68.1 | – | – |
| CC1(C)CC[C@]2(C(=O)OCc3ccccc3)CC[C@]3(C)C(=CC[C@@H]4[C@@]5(C)C/C(=C/c6cccc([N+](=O)[O-])c6)C(=O)[C@@](C)(CO)[C@@H]5CC[C@]43C)[C@@H]2C1 | 109 | 9.38 | 1.09 |
| CC1(C)CC[C@]2(C(=O)OCc3ccccc3)CC[C@]3(C)C(=CC[C@@H]4[C@@]5(C)C/C(=C/c6ccccc6Br)C(=O)[C@@](C)(CO)[C@@H]5CC[C@]43C)[C@@H]2C1 | 92.2 | 12.61 | 5.33 |
| CC1(C)CC[C@]2(C(=O)OCc3ccccc3)CC[C@]3(C)C(=CC[C@@H]4[C@@]5(C)CCC(=O)[C@@](C)(COC(=O)CNC(=O)CNC(=O)CCCC[C@@H]6CCSS6)[C@@H]5CC[C@]43C)[C@@H]2C1 | 78.5 | – | – |
| CC1(C)CC[C@]2(C(=O)OCc3ccccc3)CC[C@]3(C)C(=CC[C@@H]4[C@@]5(C)C/C(=C/c6ccsc6)C(=O)[C@@](C)(CO)[C@@H]5CC[C@]43C)[C@@H]2C1 | 66.9 | – | – |
| CC1(C)CC[C@]2(C(=O)OCc3ccccc3)CC[C@]3(C)C(=CC[C@@H]4[C@@]5(C)CCC(=O)[C@@](C)(COC(=O)CCNC(=O)CCCC[C@@H]6CCSS6)[C@@H]5CC[C@]43C)[C@@H]2C1 | 99.4 | 62.67 | 43.82 |
| CC1(C)CC[C@]2(C(=O)OCc3ccccc3)CC[C@]3(C)C(=CC[C@@H]4[C@@]5(C)C/C(=C/c6ccc([N+](=O)[O-])cc6)C(=O)[C@@](C)(CO)[C@@H]5CC[C@]43C)[C@@H]2C1 | 119 | – | – |
| CC1(C)CC[C@]2(C(=O)OCc3ccccc3)CC[C@]3(C)C(=CC[C@@H]4[C@@]5(C)CCC(=O)[C@@](C)(COC(=O)c6cc7ccccc7[nH]6)[C@@H]5CC[C@]43C)[C@@H]2C1 | 110 | 42.11 | 22.29 |
| CC1(C)CC[C@]2(C(=O)OCc3ccccc3)CC[C@]3(C)C(=CC[C@@H]4[C@@]5(C)CCC(=O)[C@@](C)(COC(=O)CCC6CCCCC6)[C@@H]5CC[C@]43C)[C@@H]2C1 | 110 | 2.05 | 0.64 |
